For one series, the system named is MCF-7. Put plainly: MTT cell viability assay, MCF-7. In kind it is cell-based, human. To be noted: Homo sapiens, MCF7, 72 h, read-out: IC50 (µM) in Cultured Cells MCF-7. An excerpt: (§1) Cell lines used for cytotoxicity assays included MCF-7 (human breast adenocarcinoma), A549 (human lung adenocarcinoma), K562 (human chronic myelogenous leukemia) and HEK-293 (human embryonic kidney) cells and were obtained from the Iranian Biological Resource Center, Tehran, Iran. MES-SA-DX5 multidrug resistant human uterine sarcoma, over-expressing P-gp and their parental non-resistant MES-SA cell lines were purchased from Sigma-Aldrich (St. Louis, MO, USA). All cells, except for HEK-293, were cultured in RPMI 1640 supplemented with 10% FBS and 100 units/mL penicillin-streptomycin at 37 °C in humidified air containing 5% CO2. HEK-293 cells were maintained in DMEM-F12 medium containing L-glutamine 2 mM supplemented with FBS and penicillin-streptomycin. MES-SA-DX5 cells were maintained in media containing 100 nM doxorubicin in order to ensure that only drug-resistant cells continue to grow.
(§2) Cytotoxicity of the test compounds were evaluated by MTT assay. In this method, reduction of MTT, a yellow tetrazolium salt to the purple formazan, by cellular dehydrogenase enzymes is determined as an index of cell viability. Cancer cells were seeded into 96-well plates (3–5 × 10^3 cells/well) and incubated for 24 h at 37 °C. Afterwards, four different concentrations of synthesized derivatives were added in triplicate and the cells were incubated at 37 °C for another 72 h, after which the media was replaced with MTT solution at a concentration of 0.5 mg/mL was added for MTT assay. After another 4h, formazan crystals were dissolved in 200 μL DMSO for 90 min and absorbance was measured at a wavelength of 570 nm with background correction at 650 nm using a microplate reader (model 680, Bio-Rad, Hercules, CA, USA) and IC50 for each compound was calculated with CurveExpert version 1.34 for Windows.

Another series addresses T1, P-gp (Homo sapiens, UniProt P08183).
T1 construct: MES-SA-DX5 is a resistant cell line, which overexpresses P-gp as a result of constant exposure to doxorubicin; host or cells: MES-SA-DX5 human uterine sarcoma cells
Put plainly: MDR reversal assay: flow cytometric detection of Rhodamine123 efflux/accumulation in MES-SA-DX5 cells. The class given is cell-based. The conditions noted are these: compounds at 5, 10 and 25 µM, 5 µM Rh123. The method, then:
Rhodamine 123 (Rh123) is a well-known substrate of P-gp and it is readily pumped out of the cells by this ABC transporter. The amount of retained Rh123 in the cells indicates the efflux function of the target transporter. Flow cytometric analysis was used for assessment of intracellular Rh123 as previously described.
Briefly, a suspension of the multidrug resistant uterine sarcoma MES-SA-DX5 cells at a density of 5 × 10^5 cells/mL in growth medium was prepared. Four-hundred microliters (400 µL) of the synthesized compounds with final concentration of 5, 10, and 25 µM were added to 500 µL of the cell suspension. Verapamil was also tested as a positive control. After an incubation of 20 min, 50 µL of Rh123 at a final concentration of 5 µM was added and incubated for further 30 min at 37 °C. The cells were then centrifuged and washed twice with ice-cold PBS, and then resuspended in PBS and kept on ice. Rh123 accumulated in cells was then quantified by a FACSCalibur flow cytometer (Becton Dickinson, San Jose, CA, USA) with excitation and emission wavelengths of 488 and 530 nm, respectively. Geometric means of fluorescence intensity values were determined using Flowing Software (http://flowingsoftware.btk.fi/).
Accumulation of Rhodamine123 (Rh123), caused by inhibition of P-gp-mediated efflux, was determined by flow cytometry in the multidrug resistant uterine sarcoma MES-SA-DX5 cell line. Verapamil was used as a positive control. MES-SA-DX5 is a resistant cell line, which overexpresses P-gp as a result of constant exposure to doxorubicin. Alterations in the amount of the fluorescent Rh123 retained inside the MES-SA-DX5 cells can be plausibly related to the inhibition of the activity of P-gp efflux pump in the cells (Figure 1). The ratio of the geometric mean value of cells treated with synthesized compounds to the geometric mean value of the control untreated cells are show in Figure 2.
Figure 2 MDR reversal assessed by flow cytometric detection of Rhodamine123 efflux in MES-SA-DX5 cells. Cells were suspended in RPMI 1640 and treated with verapamil (Ver, positive control) or synthesized derivatives. After incubation for 20 min, 5 μM Rh123 was added, the cells were incubated for another […] at 37 °C and then centrifuged and washed twice with ice-cold PBS and resuspended in PBS. The fluorescence caused by the presence of Rh123 in cells was measured using a flow cytometer with excitation and emission wavelengths of 488 nm and 530 nm, respectively. The values represent the mean ± S.E.M. of 3–5 experiments. * The difference between treated and controlled cells are statistically significant (p ˂ 0.05).
A general note: A flow cytometer gives signals particle by particle.

For the next series, the system named is MES-SA-DX5 cells. Put plainly: Cell cycle analysis by propidium iodide (PI)-RNase flow cytometry. The class given is cell-based, human. On the set-up: Sub G1: unit not given here. The conditions noted are these: 24 h. The method, then: The analysis of cells in different phases of cell cycle and sub-G1 was performed using propidium iodide (PI)-RNase assay by flow cytometry. MES-SA-DX5 cells were seeded in 12-well plates (1 × 10^6 cells/well) and treated with different concentrations of synthesized compounds for 24 h. The cells were then collected, washed with PBS, and fixed with 70% ethanol overnight at –20 °C. After at least 24 h, fixed cells were washed with PBS and subsequently stained with a DNA staining solution containing PI 20 μg/mL and RNase 200 μg/mL at room temperature for 30 min in the dark. Twenty thousand cells of each sample were analyzed using a BD FACSCalibur flow cytometer (BD Biosciences, USA) and the amount of the cells in sub-G1, G0/G1, S, and G2/M phases were estimated using CellQuest (Becton Dickinson, San Jose, CA, USA) software.
Therefore, it could be concluded that these compounds cause cytotoxicity in drug resistant MES-SA-DX5 cells by induction of apoptosis in these cells.
Figure 3 Effect of synthesized derivatives on cell cycle alterations in MES-SA-DX5 drug resistant cells. The cells in different phases of cell cycle were monitored using propidium iodide (PI)-RNase assay by flow cytometry. MES-SA-DX5 cells were seeded in 12-well plates (1 × 10^6 cells/well) and treated with different concentrations of synthesized compounds for 24 h. The cells were then collected, washed with PBS and fixed with 70% ethanol overnight at –20 °C. After at least 24 h, fixed cells were washed with PBS and subsequently stained with a DNA staining solution containing PI 20 μg/mL and RNase 200 μg/mL at room temperature for 30 min in the dark. Twenty thousand cells of each sample were analyzed using a FACS Calibur flow cytometer (BD Biosciences, USA). Representative histograms of cells treated with synthesized compounds are shown. An increase in sub-G1 phase cells could be observed after treatment with A1, A2, B1, and B2 compounds.

The test system of the next series is MES-SA-DX5. Briefly: MTT cell viability assay, MES-SA-DX5. In kind it is cell-based, human. The conditions noted are these: Homo sapiens, MES-SA/Dx5, 72 h, multidrug resistant, P-gp overexpressing, read-out: IC50 (µM) in Cultured Cells MES-SA-DX5.
Text: as §1, §2
(In general: Tetrazolium assays rely on reduction of a dye to a coloured formazan, in cell work by metabolically active cells.)

The test system of another series is HEK-293. Put plainly: MTT cell viability assay, HEK-293. In kind it is cell-based, human. To be noted: non-cancerous, read-out: IC50 (µM) in Cultured Cells HEK-293.
Text: as §1, §2

In another series the test system is A-549. Put plainly: MTT cell viability assay, A-549. In kind it is cell-based, human. To be noted: Homo sapiens, A549, 72 h, read-out: IC50 (µM) in Cultured Cells A-549.
Text: as §1, §2

Another series deals with K562. Put plainly: MTT cell viability assay, K562. The class given is cell-based, human. The conditions noted are these: Homo sapiens, K562, 72 h, read-out: IC50 (µM) in Cultured Cells K562.
Text: as §1, §2

The test system of another series is MES-SA. Put plainly: MTT cell viability assay, MES-SA. In kind it is cell-based, human. The conditions noted are these: MTT; for IC50: Homo sapiens, MES-SA, 72 h, parental non-resistant, read-out: IC50 (µM) in Cultured Cells MES-SA.
Text: as §1, §2

By IC50 is commonly meant the concentration at which inhibition is half-maximal. The term melting point denotes the temperature of the solid-liquid transition.

“Also recorded” adds a separate entry of the source. Like-named read-outs stand apart in the source and are kept apart here. Bounds are passed on as bounds.

T1 sequence (P08183 whole entry): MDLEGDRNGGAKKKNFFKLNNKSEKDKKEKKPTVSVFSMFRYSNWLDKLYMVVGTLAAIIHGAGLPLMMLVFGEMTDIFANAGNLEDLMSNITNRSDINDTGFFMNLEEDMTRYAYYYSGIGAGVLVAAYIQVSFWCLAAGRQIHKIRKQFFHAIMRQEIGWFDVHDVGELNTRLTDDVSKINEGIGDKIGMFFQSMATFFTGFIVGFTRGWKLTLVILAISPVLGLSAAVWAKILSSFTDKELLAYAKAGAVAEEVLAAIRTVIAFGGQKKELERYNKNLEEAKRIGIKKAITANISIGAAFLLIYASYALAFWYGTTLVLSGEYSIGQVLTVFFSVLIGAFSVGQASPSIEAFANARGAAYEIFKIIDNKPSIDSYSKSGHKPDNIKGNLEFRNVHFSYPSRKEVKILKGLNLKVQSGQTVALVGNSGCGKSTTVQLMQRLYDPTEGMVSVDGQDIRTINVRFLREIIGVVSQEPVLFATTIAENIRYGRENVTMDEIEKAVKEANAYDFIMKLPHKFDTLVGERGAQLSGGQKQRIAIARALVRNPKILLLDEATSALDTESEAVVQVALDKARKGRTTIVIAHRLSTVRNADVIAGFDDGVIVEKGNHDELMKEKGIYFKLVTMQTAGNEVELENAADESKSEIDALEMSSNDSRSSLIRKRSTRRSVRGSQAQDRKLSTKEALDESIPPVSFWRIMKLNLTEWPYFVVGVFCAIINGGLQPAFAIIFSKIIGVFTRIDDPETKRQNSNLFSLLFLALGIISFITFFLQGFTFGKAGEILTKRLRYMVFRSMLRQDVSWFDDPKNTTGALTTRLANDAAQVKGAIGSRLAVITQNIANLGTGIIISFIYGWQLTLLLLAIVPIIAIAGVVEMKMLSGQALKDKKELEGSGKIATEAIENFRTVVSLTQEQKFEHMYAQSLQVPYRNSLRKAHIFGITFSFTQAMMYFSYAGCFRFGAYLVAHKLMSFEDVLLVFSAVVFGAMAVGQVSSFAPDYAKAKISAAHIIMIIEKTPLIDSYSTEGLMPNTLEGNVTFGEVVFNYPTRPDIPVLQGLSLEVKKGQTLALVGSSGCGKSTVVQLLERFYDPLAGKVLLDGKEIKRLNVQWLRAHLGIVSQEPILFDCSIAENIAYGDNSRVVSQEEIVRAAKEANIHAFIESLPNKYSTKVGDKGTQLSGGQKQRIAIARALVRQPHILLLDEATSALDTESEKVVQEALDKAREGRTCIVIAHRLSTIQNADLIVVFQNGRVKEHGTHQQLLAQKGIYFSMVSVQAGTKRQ

Turning to `CC1=C(C(=O)Nc2csc(C)n2)C(c2ccc(Br)cc2)C2=C(CCCC2=O)N1` (centres unmarked) [Compound A2, 4-(4-Bromophenyl)-2-methyl-N-(2-methylthiazol-4-yl)-5-oxo-1,4,5,6,7,8-hexahydroquinoline-3-carboxamide], the melting point stood at 273 °C. In the series on MCF-7, the IC50 was 56.7 ± 3.6 µM. Further, on P-gp, the “P-gp inhibitory activity (Rh123 accumulation)” value is “significantly blocked P-gp efflux; also recorded: highest P-gp inhibitory activities”. In the series on MES-SA-DX5 cells (10 µM), the G0/G1 is 56.45 ± 1.1, the G2/M is on record as 23.45 ± 0.2, the S is recorded as 18.90 ± 0.2 and the “Sub G1” value amounted to 1.21 ± 0.7. Moreover, in the series on MES-SA-DX5 cells (25 µM), the G0/G1 is reported as 59.47 ± 3.0, the G2/M was 20.23 ± 0.7, the S came out at 18.53 ± 1.7 and the “Sub G1” value was 1.71 ± 1.1. Also, in the series with MES-SA-DX5 cells (100 µM), the G0/G1 is recorded as 50.57 ± 2.8, the G2/M amounted to 18.37 ± 2.6 and the S is on record as 19.27 ± 0.3. The IC50 in the series on MES-SA-DX5 worked out at 31.5 ± 1.5 µM. The IC50 in the series with HEK-293 (72 h) was 63.1 ± 7.4 µM. Also, the IC50 in the series with HEK-293 (Homo sapiens, HEK293, 72 h) was over 50 µM. In addition, the IC50 in the series on A-549 was 87.1 ± 6.7 µM. The IC50 in the series with K562 was determined as 31 ± 2.7 µM. Further, in the series on MES-SA, the IC50 is over 100 µM and the “effect against parental non-resistant MES-SA cells” value is on record as “did not show any effect”.

As for `CC1=C(C(=O)Nc2csc(C)n2)C(c2ccc(Cl)cc2Cl)C2=C(CCCC2=O)N1` (centres unmarked) [Compound A1, 4-(2,4-Dichlorophenyl)-2-methyl-N-(2-methylthiazol-4-yl)-5-oxo-1,4,5,6,7,8-hexahydroquinoline-3-carboxamide], the melting point worked out at 195 °C. Also, the IC50 in the series on MCF-7 was found to be 72.5 ± 11.9 µM. The “P-gp inhibitory activity (Rh123 accumulation)” value on P-gp is recorded as “significantly blocked P-gp efflux; also recorded: highest P-gp inhibitory activities”. In the series with MES-SA-DX5 cells (10 µM), the G0/G1 came to 52.32 ± 1.8, the G2/M is listed as 25.12 ± 1.7, the S is reported as 21.85 ± 1.0 and the “Sub G1” value was found to be 0.61 ± 0.2. In the series on MES-SA-DX5 cells (25 µM), the G0/G1 came to 53.30 ± 0.9, the G2/M was 25.01 ± 0.7, the S was 20.96 ± 1.2 and the “Sub G1” value was found to be 0.71 ± 0.2. This compound gave a S with MES-SA-DX5 cells (100 µM) of 21.12 ± 1.6. In addition, the IC50 in the series on MES-SA-DX5 amounted to 40.1 ± 4.7 µM. Moreover, the IC50 with HEK-293 (Homo sapiens, HEK293, 72 h) was 28.6 ± 4.3 µM. Besides, in the series with A-549, the IC50 amounted to 48.8 ± 1.3 µM. In the series on K562, the IC50 turned out to be 15 ± 0.5 µM. Besides, the IC50 in the series with MES-SA worked out at 64.1 ± 19.4 µM.

The record behind these values is article PMC7221826, “5-Oxo-hexahydroquinoline Derivatives and Their Tetrahydroquinoline Counterparts as Multidrug Resistance Reversal Agents” (Molecules, 2020).
